The test concerns the target Drp1 (Homo sapiens (Human), UniProt O00429). In words: Drp1 Activity Screen: colorimetric (malachite green) GTPase assay. The format is biochemical. As to conditions: 1 mM GTP, 20 min at 37° C.; for IC50: GTPase activity, 0.6 μM Drp1 preincubated with 0.1 mg/mL liposomes; for max % inh: max % inhibition of Drp1 GTPase activity, 0.6 μM Drp1, 0.1 mg/mL liposomes. The method, then: The GTPase activity of Drp1 was assayed using a colorimetric assay similar to as described previously by Leonard M. et al. “Robust colorimetric assays for dynamin's basal and stimulated GTPase activities.” Methods Enzymol. […] Briefly, for GTPase assays of purified Drp1 inhibitor samples, 0.6 μM Drp1 preincubated with 0.1 mg/mL liposomes (consisting of 80% soybean lipids/20% cardiolipin) and inhibitor was added to 1 mM GTP in a microtiter plate for 20 min at 37° C. in 4 mM MgCl2, 10 mM Hepes (pH 7.0), 100 mM KCl, 1 mM DTT. Reactions were stopped by diluting with 0.5 mM EDTA. Samples were then incubated with malachite green reagent (1 mM malachite green and 50 mM ammonium molybdate in 1 N HCl), and the absorbance at 650 nm was measured. The reaction rates, IC50 values, and max % inhibition were determined using Excel/GraphPad Prism software.

Results on 26 compounds are retold here after patent US11168080B2, “Dynamin-1-like protein inhibitors” (Mitobridge, Inc., priority 2017, dated 2021).

Bounds are passed on as bounds.

Drp1, sequence (O00429 whole entry): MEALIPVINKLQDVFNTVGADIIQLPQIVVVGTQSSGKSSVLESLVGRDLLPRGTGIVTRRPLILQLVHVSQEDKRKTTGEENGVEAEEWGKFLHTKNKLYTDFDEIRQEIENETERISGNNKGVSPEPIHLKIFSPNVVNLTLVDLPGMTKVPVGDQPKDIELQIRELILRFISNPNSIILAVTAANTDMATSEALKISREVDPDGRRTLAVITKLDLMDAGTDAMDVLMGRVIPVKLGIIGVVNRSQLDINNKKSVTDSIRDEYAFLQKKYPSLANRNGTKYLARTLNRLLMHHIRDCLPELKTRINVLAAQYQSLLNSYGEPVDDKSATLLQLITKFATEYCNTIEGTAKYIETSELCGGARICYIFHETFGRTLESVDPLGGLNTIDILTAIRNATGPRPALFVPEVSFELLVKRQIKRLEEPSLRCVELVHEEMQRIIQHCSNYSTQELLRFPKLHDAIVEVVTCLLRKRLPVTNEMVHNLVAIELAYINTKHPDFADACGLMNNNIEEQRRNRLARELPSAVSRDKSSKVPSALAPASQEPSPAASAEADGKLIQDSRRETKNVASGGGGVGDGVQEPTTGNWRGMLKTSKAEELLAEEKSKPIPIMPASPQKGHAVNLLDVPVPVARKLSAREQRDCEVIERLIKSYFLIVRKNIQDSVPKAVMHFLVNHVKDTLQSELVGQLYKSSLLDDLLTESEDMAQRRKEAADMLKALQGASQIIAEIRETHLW

Turning to `Cc1cc(C(=O)Nc2ccccn2)n(Cc2csc(N3CCCCC3)n2)c1` [Compound A-30, 4-methyl-1-((2-(piperidin-1-yl)thiazol-4-yl)methyl)-N-(pyridin-2-yl)-1H-pyrrole-2-carboxamide], 8.7 µM corresponded to half-maximal inhibition (IC50).

Compound `Cc1cc(C(=O)Nc2cccnc2)n(Cc2csc(N3CCCCC3)n2)c1` [Compound A-31, 4-methyl-1-((2-(piperidin-1-yl)thiazol-4-yl)methyl)-N-(pyridin-3-yl)-1H-pyrrole-2-carboxamide] had an IC50 of 7.6 µM.

Take `Cc1cc(C(=O)Nc2ccncc2)n(Cc2csc(N3CCCCC3)n2)c1` [Compound A-32, 4-methyl-1-((2-(piperidin-1-yl)thiazol-4-yl)methyl)-N-(pyridin-4-yl)-1H-pyrrole-2-carboxamide]: it took 10.3 µM to reach half-maximal inhibition (IC50).

For the compound `Cc1cc(C(=O)Nc2ccc(I)cc2)n(Cc2csc(N3CCCCC3)n2)c1` [Compound A-33, N-(4-iodophenyl)-4-methyl-1-((2-(piperidin-1-yl)thiazol-4-yl)methyl)-1H-pyrrole-2-carboxamide], the IC50 worked out at 4.5 µM and the max % inh is 34%.

In turn, `Cc1cc(C(=O)NC2COc3ccccc3C2)n(Cc2csc(N3CCCCC3)n2)c1` (stereo not drawn) [Compound A-34, N-(chroman-3-yl)-4-methyl-1-((2-(piperidin-1-yl)thiazol-4-yl)methyl)-1H-pyrrole-2-carboxamide] gave an IC50 of 9 µM.

Compound `Cc1cc(C(=O)Nc2ccc(-c3cccnc3)cc2)n(Cc2csc(N3CCCCC3)n2)c1` [Compound A-35, 4-methyl-1-((2-(piperidin-1-yl)thiazol-4-yl)methyl)-N-(4-(pyridin-3-yl)phenyl)-1H-pyrrole-2-carboxamide] had an IC50 of 1.2 µM.

`Cc1cc(C(=O)Nc2ccc(-c3c(C)noc3C)cc2)n(Cc2csc(N3CCCCC3)n2)c1` [Compound A-36, N-(4-(3,5-dimethylisoxazol-4-yl)phenyl)-4-methyl-1-((2-(piperidin-1-yl)thiazol-4-yl)methyl)-1H-pyrrole-2-carboxamide] returned an IC50 of 1.4 µM.

Compound `Cc1cc(C(=O)Nc2ccc(-c3cn[nH]c3)cc2)n(Cc2csc(N3CCCCC3)n2)c1` [Compound A-37, N-(4-(1H-pyrazol-4-yl)phenyl)-4-methyl-1-((2-(piperidin-1-yl)thiazol-4-yl)methyl)-1H-pyrrole-2-carboxamide] gave an IC50 of 1.2 µM. The IC50 values of the last two compounds are within 1.5-fold of each other.

Consider `Cc1cc(C(=O)Nc2ccc(-c3ccoc3)cc2)n(Cc2csc(N3CCCCC3)n2)c1` [Compound A-38, N-(4-(furan-3-yl)phenyl)-4-methyl-1-((2-(piperidin-1-yl)thiazol-4-yl)methyl)-1H-pyrrole-2-carboxamide], for which the half-inhibitory concentration (IC50) was 1.2 µM.

`Cc1ccc(C(=O)Nc2ccccc2)n1Cc1csc(N2CCCCC2)n1` [Compound A-39, 5-methyl-N-phenyl-1-((2-(piperidin-1-yl)thiazol-4-yl)methyl)-1H-pyrrole-2-carboxamide] registered an IC50 of 36 µM and a max % inh of 26%.

The compound `Cc1cc(C(=O)Nc2ccc3c(c2)CC(=O)N3)n(Cc2csc(N3CCCCC3)n2)c1` [Compound A-41, 4-methyl-N-(2-oxoindolin-5-yl)-1-((2-(piperidin-1-yl)thiazol-4-yl)methyl)-1H-pyrrole-2-carboxamide] yielded an IC50 of 4.2 µM.

Turning to `Cc1cc(C(=O)Nc2ccc(N3CCNC3=O)cc2)n(Cc2csc(N3CCCCC3)n2)c1` [Compound A-43, 4-methyl-N-(4-(2-oxoimidazolidin-1-yl)phenyl)-1-((2-(piperidin-1-yl)thiazol-4-yl)methyl)-1H-pyrrole-2-carboxamide], the concentration for half-maximal inhibition (IC50) was determined as 4.3 µM.

In the case of `Nc1cc(C(=O)Nc2ccc(C(=O)O)cc2)n(Cc2csc(N3CCCCC3)n2)c1` [Compound A-53, 4-(4-Amino-1-((2-(piperidin-1-yl)thiazol-4-yl)methyl)-1H-pyrrole-2-carboxamido)benzoic acid], the concentration for half-maximal inhibition (IC50) is > 100 µM.

For `Cc1cc(C(=O)Nc2ccc(C(=O)O)cc2C)n(Cc2csc(N3CCCCC3)n2)c1` [Compound A-54, 3-Methyl-4-(4-methyl-1-((2-(piperidin-1-yl)thiazol-4-yl)methyl)-1H-pyrrole-2-carboxamido)benzoic acid], the IC50 is > 100 µM.

For `CC(=O)c1cc(C(=O)Nc2ccc(C(=O)O)cc2)n(Cc2csc(N3CCCCC3)n2)c1` [Compound A-56, 4-(4-acetyl-1-((2-(piperidin-1-yl)thiazol-4-yl)methyl)-1H-pyrrole-2-carboxamido)benzoic Acid], the IC50 is > 100 µM.

Take `Cc1cc(C(=O)Nc2ccc(C(=O)O)c(F)c2)n(Cc2csc(N3CCCCC3)n2)c1` [Compound A-57, 2-fluoro-4-(4-methyl-1-((2-(piperidin-1-yl)thiazol-4-yl)methyl)-1H-pyrrole-2-carboxamido)benzoic Acid]: half-maximal inhibition (IC50) was put at 2.8 µM.

For `O=C(Nc1ccc(-c2nn[nH]n2)cc1)c1cc(-c2ccccc2)cn1Cc1csc(N2CCCCC2)n1` [Compound A-58, N-(4-(1H-tetrazol-5-yl)phenyl)-4-phenyl-1-((2-(piperidin-1-yl)thiazol-4-yl)methyl)-1H-pyrrole-2-carboxamide], the IC50 is 2.2 µM. This IC50 and that of the compound before are within 1.5-fold of each other.

Compound `Cc1cc(C(=O)Nc2ccc(C(=O)O)c(C)c2)n(Cc2csc(N3CCCCC3)n2)c1` [Compound A-61, 2-methyl-4-(4-methyl-1-((2-(piperidin-1-yl)thiazol-4-yl)methyl)-1H-pyrrole-2-carboxamido)benzoic Acid] returned an IC50 of 2.5 µM. This IC50 and that of the compound before are within 1.5-fold of each other.

In the case of `Cc1cc(C(=O)Nc2ccc(C(=O)O)nc2)n(Cc2csc(N3CCCCC3)n2)c1` [Compound A-62, 5-(4-methyl-1-((2-(piperidin-1-yl)thiazol-4-yl)methyl)-1H-pyrrole-2-carboxamido)picolinic Acid], it took 17 µM to reach half-maximal inhibition (IC50).

Consider `O=C(Nc1ccc(CO)cc1)c1cc(Br)cn1Cc1csc(N2CCCCC2)n1` [Compound A-63, 4-bromo-N-(4-(hydroxymethyl)phenyl)-1-((2-(piperidin-1-yl)thiazol-4-yl)methyl)-1H-pyrrole-2-carboxamide], for which the IC50 worked out at 3.4 µM and the max % inh came to 68%.

In turn, `Cc1cc(C(=O)Nc2ccc(C(=O)O)cc2F)n(Cc2csc(N3CCCCC3)n2)c1` [Compound A-66, 3-fluoro-4-(4-methyl-1-((2-(piperidin-1-yl)thiazol-4-yl)methyl)-1H-pyrrole-2-carboxamido)benzoic Acid] came in with an IC50 of 7.8 µM. This counts as single-digit micromolar.

As to `Cc1cc(C(=O)Nc2ccc(-c3nn[nH]n3)cc2)n(Cc2cccc(N3CCCCC3)n2)c1` [Compound A-67, N-(4-(1H-tetrazol-5-yl)phenyl)-4-methyl-1-((6-(piperidin-1-yl)pyridin-2-yl)methyl)-1H-pyrrole-2-carboxamide], the IC50 is 2.1 µM.

As to `Cc1cn(Cc2csc(N3CCCCC3)n2)c(C(=O)Nc2ccc(C(=O)O)cc2)c1C` [Compound A-68, 4-(3,4-dimethyl-1-((2-(piperidin-1-yl)thiazol-4-yl)methyl)-1H-pyrrole-2-carboxamido)benzoic acid], the IC50 was 30.5 µM.

Turning to `Cc1cc(Cn2cc(C)cc2C(=O)Nc2ccc(C(=O)O)cc2)nc(N2CCCCC2)c1` [Compound A-69, 4-(4-methyl-1-((4-methyl-6-(piperidin-1-yl)pyridin-2-yl)methyl)-1H-pyrrole-2-carboxamido)benzoic Acid], inhibition was half-maximal at 11.7 µM (IC50).

`O=C(O)c1ccc(NC(=O)c2cc(Cl)cn2Cc2csc(N3CCCCC3)n2)cc1` [Compound A-70, 4-(4-chloro-1-((2-(piperidin-1-yl)thiazol-4-yl)methyl)-1H-pyrrole-2-carboxamido)benzoic Acid] had an IC50 of 2.3 µM.

As to `Cc1cc(C(=O)Nc2ccc(-c3ccc(C(=O)O)cc3)cc2)n(Cc2csc(N3CCCCC3)n2)c1` [Compound A-71, 4′-(4-methyl-1-((2-(piperidin-1-yl)thiazol-4-yl)methyl)-1H-pyrrole-2-carboxamido)-[1,1′-biphenyl]-4-carboxylic Acid], the IC50 stood at 0.72 µM and the max % inh is 83%.

The IC50 is the midpoint of a concentration-inhibition curve. Low values mean inhibition by little substance, high ones a need for much substance.
